Measured values reported in patent US12371428B2 (Exelixis, Inc., priority 2019, dated 2025).
Like-named read-outs stand apart in the source and are kept apart here.

Columns and labels:
[1] = target: Human MER (residues 528-999) (Homo sapiens (Human), UniProt Q12866); experiment: Human Mer kinase assay, HTRF KinEase (Example C-2); type: biochemical
Procedure, shortened: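 Recombinant MER 528-999 (1 ng/well) in buffer with 5 mM MgCl2 and 1 mM DTT was reacted with biotinylated peptide and ATP at Km (40 μM) for 60 min at room temperature. EDTA stop with SA-XL665 and Eu3+ TK antibody, then 665/620 nm HTRF read; IC50 from 4-parameter fit.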

[2] = target: KDR (phospho-KDR, VEGF165-stimulated HUVEC cells) (Homo sapiens (Human), UniProt P35968); experiment: KDR autophosphorylation ELISA in HUVEC cells (Example G); type: cell-based; settings: cellular activity; KDR autophosphorylation ELISA in HUVEC cells
Procedure, shortened: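 HUVECs were serum-starved 24 h, given compound as an 8-point dilution series (0.3% DMSO final) for 1 h, then stimulated with 100 ng/mL VEGF165 for 5 min. Lysate phospho-KDR was quantified by sandwich ELISA against a phospho-KDR standard, and IC50s came from a 4-parameter logistic fit.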

[3] = target: Human MET (residues 956-1390) (Homo sapiens (Human), UniProt P08581); experiment: Human Met kinase assay, HTRF KinEase (Example D-2); type: biochemical; settings: read-out: c-Met IC50
Procedure, shortened: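 MET kinase domain (956-1390), 0.1 ng/well, in buffer with 5 mM MgCl2, 1 mM DTT and 1 mM MnCl2, phosphorylated a biotinylated peptide at ATP Km for 40 min at RT; 10 concentrations, 3% DMSO final. EDTA-stopped HTRF read after 60 min; IC50 from a 4-parameter logistic fit.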

[4] = target: Met (phospho-Met, HGF-stimulated PC-3 prostate cancer cells) (Homo sapiens (Human), UniProt P08581); experiment: Met autophosphorylation ELISA in PC-3 cells (Example F); type: cell-based; settings: cellular activity; Met autophosphorylation ELISA in PC-3 cells; read-out: c-Met IC50
Procedure, shortened: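 Sandwich ELISA for phospho-Met (panTyr) in PC-3 lysates. Cells starved 3 h serum-free, compound 1 h (8-pt curve, 0.3% DMSO), HGF 100 ng/mL 10 min. 100% = HGF + DMSO; 0% = HGF + reference inhibitor. IC50 by 4-parameter fit.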

Human MET (residues 956-1390), sequence (P08581 956-1390): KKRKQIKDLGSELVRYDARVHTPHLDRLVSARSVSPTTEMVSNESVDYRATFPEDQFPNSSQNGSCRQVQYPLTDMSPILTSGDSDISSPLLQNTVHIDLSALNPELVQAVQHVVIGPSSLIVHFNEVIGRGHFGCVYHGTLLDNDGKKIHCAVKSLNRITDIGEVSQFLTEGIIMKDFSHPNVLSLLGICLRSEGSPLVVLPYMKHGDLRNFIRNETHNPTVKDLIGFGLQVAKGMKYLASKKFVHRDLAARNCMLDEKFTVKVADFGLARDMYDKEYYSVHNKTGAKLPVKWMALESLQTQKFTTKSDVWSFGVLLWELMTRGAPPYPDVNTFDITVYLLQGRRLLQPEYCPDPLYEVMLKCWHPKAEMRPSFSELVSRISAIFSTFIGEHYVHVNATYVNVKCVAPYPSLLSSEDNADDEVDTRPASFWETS
KDR (phospho-KDR, VEGF165-stimulated HUVEC cells), sequence (P35968 20-1356): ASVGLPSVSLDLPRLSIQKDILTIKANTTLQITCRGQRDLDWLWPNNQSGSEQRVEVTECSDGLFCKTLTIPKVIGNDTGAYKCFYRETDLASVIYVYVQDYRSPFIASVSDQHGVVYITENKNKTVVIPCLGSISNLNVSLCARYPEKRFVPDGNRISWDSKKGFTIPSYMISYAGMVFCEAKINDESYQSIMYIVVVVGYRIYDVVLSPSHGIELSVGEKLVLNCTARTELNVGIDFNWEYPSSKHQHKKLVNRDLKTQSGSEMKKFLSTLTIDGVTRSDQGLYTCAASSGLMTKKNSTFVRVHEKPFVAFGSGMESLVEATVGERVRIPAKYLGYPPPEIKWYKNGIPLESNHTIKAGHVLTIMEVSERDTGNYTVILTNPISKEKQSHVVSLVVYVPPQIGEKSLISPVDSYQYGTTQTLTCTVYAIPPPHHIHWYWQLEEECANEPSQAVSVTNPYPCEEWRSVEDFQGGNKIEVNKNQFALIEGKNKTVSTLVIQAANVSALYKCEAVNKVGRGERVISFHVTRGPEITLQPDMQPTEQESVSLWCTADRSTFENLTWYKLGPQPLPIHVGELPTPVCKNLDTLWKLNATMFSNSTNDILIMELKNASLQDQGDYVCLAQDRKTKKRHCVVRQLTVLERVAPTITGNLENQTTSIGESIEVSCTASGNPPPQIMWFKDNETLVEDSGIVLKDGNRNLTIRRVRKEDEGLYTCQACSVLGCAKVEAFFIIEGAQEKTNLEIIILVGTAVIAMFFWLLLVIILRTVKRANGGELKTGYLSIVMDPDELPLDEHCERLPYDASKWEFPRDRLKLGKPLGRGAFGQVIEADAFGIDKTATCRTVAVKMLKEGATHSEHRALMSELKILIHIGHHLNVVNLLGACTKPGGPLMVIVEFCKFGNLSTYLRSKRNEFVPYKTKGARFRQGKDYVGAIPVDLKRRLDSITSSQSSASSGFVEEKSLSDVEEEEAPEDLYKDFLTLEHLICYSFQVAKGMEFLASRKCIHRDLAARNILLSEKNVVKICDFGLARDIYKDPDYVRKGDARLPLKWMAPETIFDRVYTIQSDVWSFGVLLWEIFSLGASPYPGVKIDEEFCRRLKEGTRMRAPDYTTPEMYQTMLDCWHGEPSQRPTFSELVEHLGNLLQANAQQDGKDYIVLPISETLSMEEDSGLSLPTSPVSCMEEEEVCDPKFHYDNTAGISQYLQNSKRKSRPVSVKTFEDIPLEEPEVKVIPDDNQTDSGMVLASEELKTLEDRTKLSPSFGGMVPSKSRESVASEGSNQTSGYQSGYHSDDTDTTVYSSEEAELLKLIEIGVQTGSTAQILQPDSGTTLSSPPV
Human MER (residues 528-999), sequence (Q12866 528-999): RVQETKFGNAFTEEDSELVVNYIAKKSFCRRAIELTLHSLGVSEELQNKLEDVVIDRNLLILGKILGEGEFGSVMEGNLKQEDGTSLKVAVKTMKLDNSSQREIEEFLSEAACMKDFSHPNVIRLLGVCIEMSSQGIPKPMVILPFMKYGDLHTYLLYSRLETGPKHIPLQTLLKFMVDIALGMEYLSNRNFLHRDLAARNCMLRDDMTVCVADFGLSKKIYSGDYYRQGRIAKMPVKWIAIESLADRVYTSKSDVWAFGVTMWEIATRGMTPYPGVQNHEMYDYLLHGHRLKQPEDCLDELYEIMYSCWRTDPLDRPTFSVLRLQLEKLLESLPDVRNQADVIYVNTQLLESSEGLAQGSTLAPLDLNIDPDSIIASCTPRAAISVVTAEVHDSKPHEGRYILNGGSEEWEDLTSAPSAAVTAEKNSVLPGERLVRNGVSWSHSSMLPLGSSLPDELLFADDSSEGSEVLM
Met (phospho-Met, HGF-stimulated PC-3 prostate cancer cells), sequence (P08581 25-1390): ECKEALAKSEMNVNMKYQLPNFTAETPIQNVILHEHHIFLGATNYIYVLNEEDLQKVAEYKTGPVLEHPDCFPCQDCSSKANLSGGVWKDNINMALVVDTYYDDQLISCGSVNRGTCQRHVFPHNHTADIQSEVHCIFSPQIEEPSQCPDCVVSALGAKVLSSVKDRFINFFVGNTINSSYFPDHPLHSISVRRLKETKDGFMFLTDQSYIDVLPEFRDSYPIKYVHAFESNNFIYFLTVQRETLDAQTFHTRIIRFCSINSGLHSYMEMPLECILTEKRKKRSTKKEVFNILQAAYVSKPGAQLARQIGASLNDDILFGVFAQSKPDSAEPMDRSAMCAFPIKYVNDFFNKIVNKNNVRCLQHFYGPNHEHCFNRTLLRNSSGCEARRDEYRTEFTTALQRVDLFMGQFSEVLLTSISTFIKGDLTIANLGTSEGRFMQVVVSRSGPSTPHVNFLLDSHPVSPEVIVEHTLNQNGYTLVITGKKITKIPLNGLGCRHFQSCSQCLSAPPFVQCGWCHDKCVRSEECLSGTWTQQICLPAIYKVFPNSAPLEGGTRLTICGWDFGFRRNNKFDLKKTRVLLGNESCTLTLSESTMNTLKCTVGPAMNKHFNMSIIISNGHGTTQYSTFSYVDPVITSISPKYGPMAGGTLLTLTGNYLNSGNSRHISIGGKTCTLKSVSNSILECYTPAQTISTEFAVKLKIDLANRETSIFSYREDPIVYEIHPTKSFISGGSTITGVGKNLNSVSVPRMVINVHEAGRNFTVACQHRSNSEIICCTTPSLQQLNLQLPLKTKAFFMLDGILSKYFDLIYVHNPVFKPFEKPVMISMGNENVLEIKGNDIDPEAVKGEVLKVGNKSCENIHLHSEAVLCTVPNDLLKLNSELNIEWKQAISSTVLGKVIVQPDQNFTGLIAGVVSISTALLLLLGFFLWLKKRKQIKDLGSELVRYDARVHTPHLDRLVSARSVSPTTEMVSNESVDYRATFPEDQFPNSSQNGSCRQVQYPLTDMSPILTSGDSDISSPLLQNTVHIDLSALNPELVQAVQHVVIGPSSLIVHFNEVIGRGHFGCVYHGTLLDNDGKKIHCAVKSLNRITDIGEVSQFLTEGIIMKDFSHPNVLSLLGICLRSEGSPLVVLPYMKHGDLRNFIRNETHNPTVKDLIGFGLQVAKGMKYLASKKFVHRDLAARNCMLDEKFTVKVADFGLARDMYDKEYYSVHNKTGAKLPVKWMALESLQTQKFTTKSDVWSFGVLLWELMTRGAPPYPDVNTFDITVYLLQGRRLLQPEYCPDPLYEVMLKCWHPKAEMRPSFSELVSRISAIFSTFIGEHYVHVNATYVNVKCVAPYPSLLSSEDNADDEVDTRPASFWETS

SMILES	IC50 ([1]; protocol of Example C-2) [nM]	IC50 [2] [nM]	IC50 ([3]; protocol of Example D-2) [nM]	IC50 [4] [nM]	IC50 ([1]; protocol of Example C-2 (other compounds)) [nM]	IC50 ([3]; protocol of Example D-2 (other compounds)) [nM]
C=C(C)c1cnc2c(Oc3ccc(NC(=O)c4cnc(C)c(-c5ccc(F)cc5C)c4O)cc3)ccnc2c1 [Compound 448, 5-(4-fluoro-2-methylphenyl)-4-hydroxy-6-methyl-N-[4-[(7-prop-1-en-2-yl-1,5-naphthyridin-4-yl)oxy]phenyl]pyridine-3-carboxamide]	< 100	< 100	< 100	< 100	–	–
C=C(C)c1cnc2c(Oc3ccc(NC(=O)c4c(C)nc(C)c(-c5ccc(F)cc5)c4O)cc3)ccnc2c1 [Compound 455, 5-(4-fluorophenyl)-4-hydroxy-2,6-dimethyl-N-[4-[(7-prop-1-en-2-yl-1,5-naphthyridin-4-yl)oxy]phenyl]pyridine-3-carboxamide]	< 100	< 100	< 100	< 100	–	–
COc1cc2ncnc(Oc3ccc(NC(=O)c4c5n(cc(-c6ccc(F)cc6)c4=O)CCC5)cc3F)c2cc1OC [Compound 406, N-[4-(6,7-dimethoxyquinazolin-4-yl)oxy-3-fluorophenyl]-6-(4-fluorophenyl)-7-oxo-2,3-dihydro-1H-indolizine-8-carboxamide]	–	< 100	–	< 100	< 100	< 100
C=C(C)c1cnc2c(Oc3ccc(NC(=O)c4c(C)nc(C)c(-c5ccc(F)cc5)c4O)cc3F)ccnc2c1 [Compound 451, 5-(4-fluorophenyl)-N-[3-fluoro-4-[(7-prop-1-en-2-yl-1,5-naphthyridin-4-yl)oxy]phenyl]-4-hydroxy-2,6-dimethylpyridine-3-carboxamide]	< 100	< 100	< 100	< 100	–	–
COCCOc1cc2nccc(Oc3ccc(NC(=O)c4c(COC)nc(C)c(-c5ccc(F)cc5)c4O)cc3F)c2nc1OC [Compound 482, N-[3-fluoro-4-[[6-methoxy-7-(2-methoxyethoxy)-1,5-naphthyridin-4-yl]oxy]phenyl]-5-(4-fluorophenyl)-4-hydroxy-2-(methoxymethyl)-6-methylpyridine-3-carboxamide]	< 100	< 100	< 100	< 100	–	–

Further lines, results first:

IC50 ([1]; protocol of Example C-2) [nM]	IC50 [2] [nM]	IC50 ([3]; protocol of Example D-2) [nM]	IC50 [4] [nM]	IC50 ([1]; protocol of Example C-2 (other compounds)) [nM]	IC50 ([3]; protocol of Example D-2 (other compounds)) [nM]	SMILES
< 100	< 100	100 to 300	< 100	–	–	COCc1nc(C)c(-c2ccc(F)cc2)c(O)c1C(=O)Nc1ccc(Oc2ccnc3ccc(OC)cc23)c(F)c1 [Compound 525, N-[3-fluoro-4-(6-methoxyquinolin-4-yl)oxyphenyl]-5-(4-fluorophenyl)-4-hydroxy-2-(methoxymethyl)-6-methylpyridine-3-carboxamide]
< 100	< 100	100 to 300	< 100	–	–	CCc1nc(C)c(-c2ccc(F)cc2C)c(O)c1C(=O)Nc1ccc(Oc2ccnc3ccc(OC)nc23)cc1 [Compound 526, 2-ethyl-5-(4-fluoro-2-methylphenyl)-4-hydroxy-N-[4-[(6-methoxy-1,5-naphthyridin-4-yl)oxy]phenyl]-6-methylpyridine-3-carboxamide]
< 100	< 100	< 100	< 100	–	–	Cc1ccc2nccc(Oc3ccc(NC(=O)c4c(C)nc(C)c(-c5ccc(F)cc5C)c4O)cc3F)c2n1 [Compound 506, N-[3-fluoro-4-[(6-methyl-1,5-naphthyridin-4-yl)oxy]phenyl]-5-(4-fluoro-2-methylphenyl)-4-hydroxy-2,6-dimethylpyridine-3-carboxamide]
< 100	< 100	< 100	< 100	–	–	COc1cc2nccc(Oc3ccc(NC(=O)c4cn(C)cc(-c5ccc(F)cc5C)c4=O)cc3F)c2nc1OC [Compound 503, N-[4-[(6,7-dimethoxy-1,5-naphthyridin-4-yl)oxy]-3-fluorophenyl]-5-(4-fluoro-2-methylphenyl)-1-methyl-4-oxopyridine-3-carboxamide]
